“Also recorded” adds a separate entry of the source. Values belong to the molecule of their own block, whether it stands above or below them.
What was measured:
[1] = tested on: mouse model of ATN or ischemia/reperfusion injury; assay: Mouse model of ATN (30 min clamp, contralateral nephrectomy): plasma creatinine; format: in vivo, mice; settings: mice, 30 minutes of ischemia; 10 μg protein or single dose, 15 min prior to ischemia
Protocol: Male C57BL/6 mice (20-25 gr; Charles River) were anesthetized with intraperitoneal pentobarbital (50 mg/kg) and placed on a heating pad under a warming light to maintain 37© core body temperature. Kidneys were exposed through an abdominal section and the right kidney was either removed or its vascular pedicle and ureter ligated. The vascular pedicle of the left kidney or both kidneys was clamped by a microaneurysm clip (Kent Scientific) for 30 minutes after right nephrectomy. This period of ischemia generated reproducible renal injury but minimized mortality. During the procedure, PBS (0.5 ml) was used to dampen the peritoneum. The animal was closed with 5-0 Nylon. Saline, NGAL, retinol-loaded retinol binding protein (RBP), enterochelin, or desferroxamine mesylate (DFO) were injected into the peritoneum or subcutaneously 15 min. prior to ischemia or 1-2 hr after reperfusion.
After 6 or 24 hr of reperfusion, heparinized plasma, urine and kidney samples were obtained to measure NGAL (polyclonal 1:500), Heme oxygenase-1 (Stressgen, 1:2000), E-cadherin (BD Transduction Labs, 1:2000), N-cadherin (BD Transduction Labs, 1:3000) and GAPDH (Chemicon International, 1:3000) using immunoblots. Plasma was also used for creatinine and blood urea nitrogen colorimetric assays. Sagittal sections of the kidney were fixed in 4% formalin, or were snap frozen for mRNA and protein analysis. Paraffin-embedded sections (5 μm) were stained with hematoxylin-eosin or by an in situ kit (Fluorescein-TUNEL, Roche) for apoptotic nuclei or for total nuclei (Toprol, Molecular Probes). For cell proliferation analysis, BrdU was injected into the peritoneum 1 hour before sacrifice, and cryostat sections were stained with anti-BrdU (Roche) according to the manufacturer.

NGAL = NGAL (Homo sapiens, UniProt P80188); settings: read-out: affinity of siderophore binding to NGAL (calyx); cited from earlier work
[2] = Distribution and radioautography of ^55Fe after ^55Fe:Sid:NGAL injection; format: in vivo, mice; settings: non-protein bound ^55Fe citrate
[3] = previously reported; cited from earlier work

Molecule: O=C(N[C@H]1COC(=O)[C@@H](NC(=O)c2cccc(O)c2O)COC(=O)[C@@H](NC(=O)c2cccc(O)c2O)COC1=O)c1cccc(O)c1O [Sid, enterochelin, reference compound]
protection against ATN (creatinine, FIG. 17A) [1]: failed to protect against ATN; also recorded: ineffective
Kd (NGAL): 0.4 nM

iron recovered in the kidney [2]: 1.5%
Molecule: O=C([O-])CC(O)(CC(=O)[O-])C(=O)[O-].[Fe+3] [^55Fe citrate]

B1: human NGAL: human NGAL of previously reported clearance data (protein, UniProt P80188 21-198, looked up)
Neutrophil …: QDSTSDLIPAPPLSKVPLQQNFQDNQFQGKWYVVGLAGNAILREDKDPQKMYATIYELKEDKSYNVTSVLFRKKKCDYWIRTFVPGCQPGEFTLGNIKSYPGLTSYLVRVVSTNYNQHAMVFFKKVSQNREYFKITLYGRTKELTSELKENFIRFSKSLGLPENHIVFPVPIDQCIDG
kidney versus liver level per mg protein [3]: 12 fold
t1/2 of clearance from the circulation [3]: 10 min
